The values below come from patent US9801896B2, “Compositions comprising S-adenosylmethionine and a gallic acid ester” (Methylation Sciences International SRL, priority 2012, dated 2017).

A short description of series [1]: Beagle pharmacokinetics of SAMe tablets with various amounts of propyl gallate (Example 6). The method, then: Tablets comprising SAMe and various amounts of propyl gallate were generated by mixing S-adenosyl-L-methionine disulfate tosylate granules (equivalent to 400 mg of SAMe ion) with the various amounts of propyl gallate listed in Table 4 below. Each mixture was pressed into a tablet and coated followed by dissolution profiling and in vivo pharmacokinetic analysis using beagle dogs.
For in vivo studies, fasted male beagle dogs (7-10 kg) were used as described above. Each group (6 dogs for SAMe/propyl gallate and 6 dogs for the SAMe control lacking propyl gallate) were dosed with a single orally administered enteric coated tablet, under fasted conditions, followed by 5 mL of purified water orally with a syringe to facilitate swallowing. Pharmacokinetic blood samples (2 mL each) for SAMe analysis were collected from the jugular vein using the following time points: pre-dose, 20 and 40 minutes, 1, 1.5, 2, 3, 4, 6, and 8 hours after treatment. The venipuncture blood samples were collected into tubes containing the anticoagulant K2-EDTA, and stored on wet ice pending processing. Following collection, samples were centrifuged (at 4° C.) to separate the plasma fraction from the blood cells. […]
The concentration of SAMe in dog plasma was determined using the well established LC/MS/MS method. […]

The test system of a further series is Caco-2 cell monolayers. Description: Permeability of SAMe across Caco-2 cell monolayers with propyl gallate (Example 3). Here is the method:
The Caco-2 cell line is derived from a human colorectal carcinoma and is widely used for in vitro cell culture models for the study of gastrointestinal drug absorption (Stewart, B., (1995) Pharm. Res. 12:693). In these models, pure cell lines are grown on a semi-permeable membrane. Drug formulations are placed on the apical or basolateral side of the cell monolayer and transport is determined via measurement of drug concentrations on the other side of the membrane.
The Caco-2 cell line utilized here was from the American Type Culture Collection (ATCC). Caco-2 cells are grown in Dulbecco's modified Eagle's medium (DMEM, Gibco) supplemented with 20% FBS (fetal bovine serum, Gibco), 100 uM non-essential amino acids (NEAA, Gibco) and 2 mM L-glutamine (Gibco). […] The cells used in transport studies were grown for 3 days before the experiments. The culturing conditions were 37° C. in an atmosphere of 5% CO2 and 100% humidity.
A 2 mM aqueous solution of SAMe disulfate tosylate was added on the apical or basolateral side according to the manufacturer's procedure for the Caco-2 kit.
The permeability (Papp) of SAMe is calculated using the following formula: […]
Where dQ/dt is the rate of permeation, C0 is the initial concentration of test agent, and A is the area of the monolayer.

A short description of series [2]: Beagle plasma SAMe after tablets of SAMe co-formulated with alkyl gallates (Example 1). The series is classed as in vivo. The following applies: fasted male beagle dogs, single oral enteric coated tablet, 400 mg SAMe ion co-formulated with 25 mg gallic acid ester; FIG. 1; compared with other formulations. The method, then:
Tablets comprising SAMe and various alkyl gallates of different chemical structure were generated by mixing SAMe with either methyl gallate, ethyl gallate, butyl gallate, isobutyl gallate, isoamyl gallate or octyl gallate (see structures below). Tablets were then administered to Beagle dogs and blood samples were withdrawn over time. Analysis of concentrations of SAMe in plasma was used to compare the effects of these gallic acid esters on the uptake of orally administered SAMe in the blood.
Tablets were generated by mixing 400 mg SAMe ion (from SAMe disulfate tosylate) with 25 mg gallic acid ester along with excipients (microcrystalline cellulose, sodium starch glycolate, silicon dioxide, and magnesium stearate) to make up the 1025 mg tablet. A commercial seal coat and then a commercial enteric coat was applied to the tablets prior to dissolution testing. Detailed dissolution profiling was performed according to USP standards at either pH 6.8 or 6.0 on each set of tablets to ensure that adequate dissolution was achieved prior to in vivo pharmacokinetic analysis.
The study protocol was approved by the institution's Animal Care Committee, and all animals were cared for according to regulations proposed by Agriculture Canada and the USDA.
Ten different formulations were tested in the present study. 400 mg SAMe co-formulated with 25 mg propyl gallate was compared to: SAMe control tablets (i.e., with no propyl gallate); SAMe tablets co-administered with separate 25 mg propyl gallate tablets; a commercially available SAMe product (400 mg); or 400 mg SAMe with 25 mg of either methyl gallate, ethyl gallate, butyl gallate, isobutyl gallate, isoamyl gallate or octyl gallate.

Series [3] is described as follows: Beagle plasma SAMe after capsules of SAMe with gallate-related molecules (Example 2). The series is classed as in vivo. As to conditions: beagle dogs, single oral capsule, 100 mg SAMe ion with 100 mg agent; versus BHT, propyl paraben and gallic acid; FIGS. 2A, 2B. The method, then: BHT, propyl paraben and propyl gallate are food-grade antioxidants which have often been used in combination. […] The capsules also contained additional excipients (Microcrystalline cellulose, Sodium Starch Glycolate, Colloidal Silicon Dioxide, and Magnesium Stearate). Capsules were manually filled and in some embodiments, a layer of commercial seal coat was applied to the capsules using a fluid bed coater. Beagle dogs were administered a single orally delivered dose as described above.

A short description of series [4]: PAMPA permeability of SAMe with and without propyl gallate (Example 4). The series is classed as in vitro ADME. The following applies: for Average Effective Permeability: PAMPA, SAMe 2 mM, 5 hr. Here is the method: Using a PAMPA (parallel artificial membrane permeability assay) model, the permeability of SAMe was measured in the presence and absence of propyl gallate.
PAMPA methods were used to determine the permeability of substances from a donor compartment, through a lipid-infused artificial membrane into an acceptor compartment. A multi-well microtitre plate was used for the donor and a membrane/acceptor compartment is placed on top. At the beginning of the test, SAMe disulfate tosylate (with or without different concentrations of propyl gallate as indicated in Table 2 below) was added to the donor compartment, and the acceptor compartment remained drug-free. After an incubation period, the compartments were separated and the amount of SAMe was measured in each compartment. Mass balance allows calculation of SAMe that remains in the membrane.
A general note: PAMPA measures passive passage across an artificial lipid membrane.

Take `CCCOC(=O)c1cc(O)c(O)c(O)c1` [propyl gallate]: in series [1] (dog, in vivo), the “relationship of propyl gallate with SAMe uptake in vivo” value is “dose-response relationship”. Further, in the series with Caco-2 cell monolayers (summary of Table 1), the “effect of propyl gallate on SAMe transport in Caco-2 cells” value was “increases SAMe transport”. The “maximum SAMe plasma concentration (Cmax), uptake into the plasma” value (from here on “maximum SAMe plasma concentration (Cmax)”) in series [2] is given as “superior uptake into the plasma”. Besides, the “plasma SAMe Cmax and AUC, SAMe uptake into the blood” value in series [3] is “superior and surprising ability”.

In the case of `C[S+](CC[C@H](N)C(=O)[O-])C[C@H]1O[C@@H](n2cnc3c(N)ncnc32)[C@H](O)[C@@H]1O` (stereo partly drawn) [SAMe, S-adenosyl-L-methionine], in series [1] (beagle, oral tablet, SAMe 400 mg, Propyl Gallate 6.25 mg), the “AUC(0-inf.) ± SD” value was 21,734 ± 9848^ hr*ng/mL. The “Average Effective Permeability” value was found to be 0.0042 ×10⁻⁶ cm/s in series [4] (Propyl Gallate 0 mM), 0.002 ×10⁻⁶ cm/s in series [4] (Propyl Gallate 0.2 mM) and 0.0048 ×10⁻⁶ cm/s in series [4] (Propyl Gallate 2 mM). The “transport of SAMe across the PAMPA membrane” value in series [4] (summary of Table 2) is given as “essentially no transport”.

As for `CCCCCCCCOC(=O)c1cc(O)c(O)c(O)c1` [octyl gallate], the “maximum SAMe plasma concentration (Cmax)” value in series [2] was “superior uptake into the plasma”.

On to `CC(C)CCOC(=O)c1cc(O)c(O)c(O)c1` [isoamyl gallate], for which the “maximum SAMe plasma concentration (Cmax)” value in series [2] is listed as “superior uptake into the plasma”.

Consider `CCOC(=O)c1cc(O)c(O)c(O)c1` [ethyl gallate], for which the “maximum SAMe plasma concentration (Cmax)” value in series [2] is listed as “superior uptake into the plasma”.

Take `CCCCOC(=O)c1cc(O)c(O)c(O)c1` [butyl gallate]: the “maximum SAMe plasma concentration (Cmax)” value in series [2] is given as “did not result in pharmacokinetics even close to that of SAMe-propyl gallate formulations”.

On to “S-adenosyl-L-methionine disulfate tosylate [SAMe disulfate tosylate]”, for which the “apparent permeability coefficient (Papp), apical to basolateral” value in the series with Caco-2 cell monolayers (Caco-2, apical to basolateral, SAMe salt alone) was 0.41 ×10⁻⁶ cm/s. For the same compound, the “apparent permeability coefficient (Papp), basolateral to apical” value in the series on Caco-2 cell monolayers (Caco-2, basolateral to apical, SAMe salt alone) is 0.5 ×10⁻⁶ cm/s.
